Source: PMC8284931 (Journal of biomolecular screening, 2012)
Counter-ions that a name gives are not always drawn. Like-named read-outs stand apart in the source and are kept apart here.

Key:
P-glycoprotein = conditions: result in words; cited from earlier work
[1] = reported, no reference given, cited from earlier work
[2] = target: T1, mammalian GUS purified from Bovine taurus liver (Bos taurus, UniProt A3KMY8); assay: B. taurus GUS enzyme assay; format: biochemical; conditions: for activity against purified mammalian GUS: result in words
T1 sequence (A3KMY8 1-652): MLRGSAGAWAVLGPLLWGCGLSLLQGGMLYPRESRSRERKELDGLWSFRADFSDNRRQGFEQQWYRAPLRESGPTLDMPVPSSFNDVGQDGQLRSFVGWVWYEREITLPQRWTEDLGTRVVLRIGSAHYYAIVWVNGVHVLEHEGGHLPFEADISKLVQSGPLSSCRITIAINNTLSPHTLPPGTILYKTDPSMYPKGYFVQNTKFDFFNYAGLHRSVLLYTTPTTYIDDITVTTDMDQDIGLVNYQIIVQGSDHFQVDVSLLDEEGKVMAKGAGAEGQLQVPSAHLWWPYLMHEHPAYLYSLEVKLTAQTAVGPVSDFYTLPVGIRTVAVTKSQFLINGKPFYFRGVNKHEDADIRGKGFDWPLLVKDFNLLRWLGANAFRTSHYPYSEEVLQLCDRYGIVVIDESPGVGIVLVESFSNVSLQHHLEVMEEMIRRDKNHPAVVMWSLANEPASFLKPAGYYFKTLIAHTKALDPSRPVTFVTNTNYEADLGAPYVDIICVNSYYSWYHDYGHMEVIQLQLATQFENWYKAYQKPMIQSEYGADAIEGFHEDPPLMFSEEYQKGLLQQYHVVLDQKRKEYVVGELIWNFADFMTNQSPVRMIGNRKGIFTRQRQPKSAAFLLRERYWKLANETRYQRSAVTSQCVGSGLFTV

E. coli cells = assay: Toxicity assay; conditions: MTS, 50 μg/ml, positive control
[3] = target: purified E. coli GUS enzyme (Escherichia coli, UniProt P05804); assay: E. coli GUS enzyme assay; format: biochemical
Sequence of purified E. coli GUS enzyme (P05804 whole entry): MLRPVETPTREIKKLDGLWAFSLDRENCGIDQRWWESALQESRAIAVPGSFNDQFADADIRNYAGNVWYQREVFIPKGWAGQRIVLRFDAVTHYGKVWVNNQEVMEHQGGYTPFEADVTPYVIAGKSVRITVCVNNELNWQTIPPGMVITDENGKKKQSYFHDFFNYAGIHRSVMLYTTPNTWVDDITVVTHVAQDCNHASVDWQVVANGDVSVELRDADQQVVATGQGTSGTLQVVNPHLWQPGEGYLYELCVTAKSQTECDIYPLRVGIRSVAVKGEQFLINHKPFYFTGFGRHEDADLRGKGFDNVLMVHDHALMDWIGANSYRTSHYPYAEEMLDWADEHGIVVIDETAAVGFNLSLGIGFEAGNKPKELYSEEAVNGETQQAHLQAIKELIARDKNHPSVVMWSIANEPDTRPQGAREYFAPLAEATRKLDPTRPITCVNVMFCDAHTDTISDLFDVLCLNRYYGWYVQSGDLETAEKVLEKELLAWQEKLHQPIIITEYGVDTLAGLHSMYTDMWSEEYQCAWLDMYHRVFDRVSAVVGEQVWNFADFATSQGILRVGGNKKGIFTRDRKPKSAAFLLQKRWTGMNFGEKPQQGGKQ

[4] = target: endogenous GUS in living intact E. coli (DH5α) (Escherichia coli, UniProt P05804); assay: E. coli cell-based GUS activity assay; conditions: IC50 shift; for fold less potent in cell-based assay compared to E. coli GUS enzyme assay: less potent in cells
Sequence of endogenous GUS in living intact E. coli (DH5α) (P05804 whole entry): as above

in vitro = conditions: E. coli
[5] = system: MAO (MAO-A, MAO-B or total activity); conditions: read-out: IC50 for MAO; depending on subclass of MAO-A or MAO-B, or total activity; reported, no reference given; cited from earlier work

Q: With `Clc1ccc2c(c1)C(N1CCNCC1)=Nc1ccccc1O2` [Amoxapine, amoxapine] as the compound, how does the “inhibition of P-glycoprotein” value (P-glycoprotein) read?
A: potent non-competitive inhibitors

Q: What about the normal blood levels ([1]; converted from μg/ml) of the same compound?
A: 54 to 669 nM

Q: What about the normal blood levels [1] of the same compound?
A: 0.017 to 0.21 µg/mL

Q: Which results are given for `Cc1cc(C(=O)NNCc2ccccc2)no1` [Isocarboxazid, isocarboxazid]?
A: IC50 [2]: > 100 µM; activity against purified mammalian GUS [2]: no significant activity

Q: With `NC[C@H]1O[C@H](O[C@H]2[C@H](O)[C@@H](O[C@H]3O[C@H](CO)[C@@H](O)[C@H](N)[C@H]3O)[C@H](N)C[C@@H]2N)[C@H](O)[C@@H](O)[C@@H]1O` [Kanamycin, kanamycin] as the compound, how does the “reduction of activity in viability assay” value (E. coli cells) read?
A: over 90%

Q: For `CN1CCN(C2=Nc3ccccc3Oc3ccc(Cl)cc32)CC1` [Loxapine, loxapine], which “loss in potency versus amoxapine” value ([3]; E. coli GUS enzyme assay, methyl group on the piperazine ring) is on record?
A: > 250 fold

Q: What about the “inhibition of P-glycoprotein” value (P-glycoprotein) of the same compound?
A: potent non-competitive inhibitors

Q: Which “fold less potent in cell-based assay compared to E. coli GUS enzyme assay” value [4] does the source give for `OC(c1cc(C(F)(F)F)nc2c(C(F)(F)F)cccc12)C1CCCCN1` (stereo not drawn) [Mefloquine, mefloquine hydrochloride] here?
A: over 4.9 fold

Q: And the “fold less potent in cell-based assay compared to E. coli GUS enzyme assay” value ([4]; listed as mefloquine)?
A: 5 fold

Q: What about the viability at 2 h, 10 µM (in vitro) of the same compound?
A: 100%

Q: Which results are given for `O=C(CCNNC(=O)c1ccncc1)NCc1ccccc1` [Nialamide, nialamide]?
A: activity against purified mammalian GUS [2]: no significant activity; fold more potent in cell-based assay compared to E. coli GUS enzyme assay ([4]; more potent in cells): 4 fold

Q: What does the source list for `NNCCc1ccccc1` [Phenelzine, phenelzine]?
A: inhibition in Prestwick collection screen ([3]; single point, 10 μM compound, high throughput GUS enzyme assay, 10 µM): > 50%; IC50 [5]: 70 to 900 nM
